Measured values published in ChEMBL document CHEMBL4152299, “Synthesis, crystal structure and antimicrobial potential of some fluorinated chalcone-1,2,3-triazole conjugates” (2018).
≈ marks a conversion by molar mass, not a printed value.

What was measured:
Assay type in all cases: functional
[1] = test system: Bacillus subtilis; test: Antibacterial activity against Bacillus subtilis MTCC 441 after 24 hrs by serial dilution method; details: MTCC 441, 24 h
[2] = test system: Staphylococcus epidermidis; test: Antibacterial activity against Staphylococcus epidermidis MTCC 6880 after 24 hrs by serial dilution method; details: MTCC 6880, 24 h
[3] = test system: Pseudomonas aeruginosa; test: Antibacterial activity against Pseudomonas aeruginosa MTCC 424 after 24 hrs by serial dilution method; details: MTCC 424, 24 h
[4] = test system: Aspergillus niger; test: Antifungal activity against Aspergillus niger MTCC 8189 after 120 hrs by serial dilution method; details: MTCC 8189, 120 h
[5] = test system: Candida albicans; test: Antifungal activity against Candida albicans MTCC 227 after 48 hrs by serial dilution method; details: MTCC 227, 48 h
[6] = test system: Escherichia coli; test: Antibacterial activity against Escherichia coli MTCC 16521 after 24 hrs by serial dilution method; details: MTCC 16521, 24 h

Compound | MIC [1] | MIC [2] | MIC [3] | MIC [4] | MIC [5] | MIC [6]
O=C(/C=C/c1c(OCc2cn(Cc3ccc(F)cc3)nn2)ccc2ccccc12)c1ccc([N+](=O)[O-])cc1 | 6.3 µM (≈ 3.2 µg/mL) | 3.2 µM (≈ 1.63 µg/mL) | 6.3 µM (≈ 3.2 µg/mL) | 3.2 µM (≈ 1.63 µg/mL) | 3.2 µM (≈ 1.63 µg/mL) | 3.2 µM (≈ 1.63 µg/mL)
COc1ccc(C(=O)/C=C/c2c(OCc3cn(-c4ccc(F)cc4)nn3)ccc3ccccc23)cc1 | 26.1 µM (≈ 12.5 µg/mL) | 52.2 µM (≈ 25 µg/mL) | 26.1 µM (≈ 12.5 µg/mL) | 52.2 µM (≈ 25 µg/mL) | 13 µM (≈ 6.23 µg/mL) | 13 µM (≈ 6.23 µg/mL)
O=C(/C=C/c1c(OCc2cn(Cc3ccccc3)nn2)ccc2ccccc12)c1ccc([N+](=O)[O-])cc1 | 6.3 µM (≈ 3.09 µg/mL) | 6.3 µM (≈ 3.09 µg/mL) | 12.8 µM (≈ 6.28 µg/mL) | 6.3 µM (≈ 3.09 µg/mL) | 12.8 µM (≈ 6.28 µg/mL) | 12.8 µM (≈ 6.28 µg/mL)
OC(Cn1cncn1)(Cn1cncn1)c1ccc(F)cc1F [FLUCONAZOLE] | – | – | – | 5.1 µM (≈ 1.56 µg/mL) | 10.2 µM (≈ 3.12 µg/mL) | –
O=C(/C=C/c1c(OCc2cn(-c3ccc(F)cc3)nn2)ccc2ccccc12)c1ccc(Br)cc1 | 47.4 µM (≈ 25 µg/mL) | 47.4 µM (≈ 25 µg/mL) | 47.4 µM (≈ 25 µg/mL) | 23.7 µM (≈ 12.5 µg/mL) | 47.4 µM (≈ 25 µg/mL) | 23.7 µM (≈ 12.5 µg/mL)
COc1ccc(C(=O)/C=C/c2c(OCc3cn(Cc4ccccc4)nn3)ccc3ccccc23)cc1 | 26.3 µM (≈ 12.5 µg/mL) | 52.6 µM (≈ 25 µg/mL) | 26.3 µM (≈ 12.5 µg/mL) | 52.6 µM (≈ 25 µg/mL) | 52.6 µM (≈ 25 µg/mL) | 26.3 µM (≈ 12.5 µg/mL)
O=C(/C=C/c1c(OCc2cn(-c3cccc(C(F)(F)F)c3)nn2)ccc2ccccc12)c1ccc(Br)cc1 | 21.7 µM (≈ 12.6 µg/mL) | 21.7 µM (≈ 12.6 µg/mL) | 10.8 µM (≈ 6.25 µg/mL) | 10.8 µM (≈ 6.25 µg/mL) | 21.7 µM (≈ 12.6 µg/mL) | 10.8 µM (≈ 6.25 µg/mL)
O=C(O)c1cn(C2CC2)c2cc(N3CCNCC3)c(F)cc2c1=O [CIPROFLOXACIN] | 4.7 µM (≈ 1.56 µg/mL) | 4.7 µM (≈ 1.56 µg/mL) | 4.7 µM (≈ 1.56 µg/mL) | – | – | 4.7 µM (≈ 1.56 µg/mL)
O=C(/C=C/c1c(OCc2cn(Cc3cccc(F)c3)nn2)ccc2ccccc12)c1ccc([N+](=O)[O-])cc1 | 12.6 µM (≈ 6.41 µg/mL) | 6.3 µM (≈ 3.2 µg/mL) | 6.3 µM (≈ 3.2 µg/mL) | 6.3 µM (≈ 3.2 µg/mL) | 6.3 µM (≈ 3.2 µg/mL) | 6.3 µM (≈ 3.2 µg/mL)
COc1ccc(C(=O)/C=C/c2c(OCc3cn(Cc4ccc(F)cc4)nn3)ccc3ccccc23)cc1 | 25.3 µM (≈ 12.5 µg/mL) | 25.3 µM (≈ 12.5 µg/mL) | 25.3 µM (≈ 12.5 µg/mL) | 12.6 µM (≈ 6.22 µg/mL) | 6.3 µM (≈ 3.11 µg/mL) | 3.2 µM (≈ 1.58 µg/mL)
O=C(/C=C/c1c(OCc2cn(Cc3cccc(F)c3)nn2)ccc2ccccc12)c1ccc(Br)cc1 | 11.6 µM (≈ 6.29 µg/mL) | 23.2 µM (≈ 12.6 µg/mL) | 23.2 µM (≈ 12.6 µg/mL) | 23.2 µM (≈ 12.6 µg/mL) | 23.2 µM (≈ 12.6 µg/mL) | 11.6 µM (≈ 6.29 µg/mL)
C#CCOc1ccc2ccccc2c1/C=C/C(=O)c1ccc([N+](=O)[O-])cc1 | 140 µM (≈ 50 µg/mL) | 70 µM (≈ 25 µg/mL) | 70 µM (≈ 25 µg/mL) | 70 µM (≈ 25 µg/mL) | 70 µM (≈ 25 µg/mL) | 70 µM (≈ 25 µg/mL)
C#CCOc1ccc2ccccc2c1/C=C/C(=O)c1ccc(Br)cc1 | 63.7 µM (≈ 24.9 µg/mL) | 127 µM (≈ 49.8 µg/mL) | 63.7 µM (≈ 24.9 µg/mL) | 127 µM (≈ 49.8 µg/mL) | 63.7 µM (≈ 24.9 µg/mL) | 63.7 µM (≈ 24.9 µg/mL)
O=C(/C=C/c1c(OCc2cn(Cc3ccccc3F)nn2)ccc2ccccc12)c1ccc(Br)cc1 | 11.6 µM (≈ 6.29 µg/mL) | 11.6 µM (≈ 6.29 µg/mL) | 23.2 µM (≈ 12.6 µg/mL) | 23.2 µM (≈ 12.6 µg/mL) | 23.2 µM (≈ 12.6 µg/mL) | 11.6 µM (≈ 6.29 µg/mL)
COc1ccc(C(=O)/C=C/c2c(OCc3cn(Cc4ccccc4F)nn3)ccc3ccccc23)cc1 | 25.3 µM (≈ 12.5 µg/mL) | 25.3 µM (≈ 12.5 µg/mL) | 12.6 µM (≈ 6.22 µg/mL) | 25.3 µM (≈ 12.5 µg/mL) | 6.3 µM (≈ 3.11 µg/mL) | 6.3 µM (≈ 3.11 µg/mL)
O=C(/C=C/c1c(OCc2cn(-c3ccc(F)cc3)nn2)ccc2ccccc12)c1ccc([N+](=O)[O-])cc1 | 12.6 µM (≈ 6.23 µg/mL) | 25.3 µM (≈ 12.5 µg/mL) | 25.3 µM (≈ 12.5 µg/mL) | 12.6 µM (≈ 6.23 µg/mL) | 12.6 µM (≈ 6.23 µg/mL) | 25.3 µM (≈ 12.5 µg/mL)
COc1ccc(C(=O)/C=C/c2c(OCc3cn(-c4cccc(C(F)(F)F)c4)nn3)ccc3ccccc23)cc1 | 23.6 µM (≈ 12.5 µg/mL) | 23.6 µM (≈ 12.5 µg/mL) | 23.6 µM (≈ 12.5 µg/mL) | 11.8 µM (≈ 6.25 µg/mL) | 11.8 µM (≈ 6.25 µg/mL) | 11.8 µM (≈ 6.25 µg/mL)
C#CCOc1ccc2ccccc2c1/C=C/C(=O)c1ccc(OC)cc1 | 73.1 µM (≈ 25 µg/mL) | 146 µM (≈ 50.1 µg/mL) | 73.1 µM (≈ 25 µg/mL) | 73.1 µM (≈ 25 µg/mL) | 73.1 µM (≈ 25 µg/mL) | 73.1 µM (≈ 25 µg/mL)
O=C(/C=C/c1c(OCc2cn(Cc3ccccc3)nn2)ccc2ccccc12)c1ccc(Br)cc1 | 23.9 µM (≈ 12.5 µg/mL) | 11.9 µM (≈ 6.24 µg/mL) | 11.9 µM (≈ 6.24 µg/mL) | 11.9 µM (≈ 6.24 µg/mL) | 11.9 µM (≈ 6.24 µg/mL) | 11.9 µM (≈ 6.24 µg/mL)
O=C(/C=C/c1c(OCc2cn(Cc3ccccc3F)nn2)ccc2ccccc12)c1ccc([N+](=O)[O-])cc1 | 6.3 µM (≈ 3.2 µg/mL) | 6.3 µM (≈ 3.2 µg/mL) | 24.8 µM (≈ 12.6 µg/mL) | 6.3 µM (≈ 3.2 µg/mL) | 6.3 µM (≈ 3.2 µg/mL) | 6.3 µM (≈ 3.2 µg/mL)
COc1ccc(C(=O)/C=C/c2c(OCc3cn(Cc4cccc(F)c4)nn3)ccc3ccccc23)cc1 | 25.3 µM (≈ 12.5 µg/mL) | 25.3 µM (≈ 12.5 µg/mL) | 25.3 µM (≈ 12.5 µg/mL) | 12.6 µM (≈ 6.22 µg/mL) | 12.6 µM (≈ 6.22 µg/mL) | 12.6 µM (≈ 6.22 µg/mL)
O=C(/C=C/c1c(OCc2cn(-c3cccc(C(F)(F)F)c3)nn2)ccc2ccccc12)c1ccc([N+](=O)[O-])cc1 | 45.9 µM (≈ 25 µg/mL) | 23 µM (≈ 12.5 µg/mL) | 23 µM (≈ 12.5 µg/mL) | 45.9 µM (≈ 25 µg/mL) | 11.5 µM (≈ 6.26 µg/mL) | 23 µM (≈ 12.5 µg/mL)
O=C(/C=C/c1c(OCc2cn(Cc3ccc(F)cc3)nn2)ccc2ccccc12)c1ccc(Br)cc1 | 5.8 µM (≈ 3.15 µg/mL) | 5.8 µM (≈ 3.15 µg/mL) | 11.6 µM (≈ 6.29 µg/mL) | 5.8 µM (≈ 3.15 µg/mL) | 5.8 µM (≈ 3.15 µg/mL) | 5.8 µM (≈ 3.15 µg/mL)
